Article PMC11062922 (Nature Chemical Biology, 2023)

Key:
CAMK2B = molecular target: T1, CAMK2B (Homo sapiens, UniProt Q13554); assay: Kinobeads competition binding: CAMK2B; settings: target CAMK2B
T1 construct: endogenous in cells
From the text: Supplement 41589_2023_1459_MOESM4_ESM.xlsx, sheet "CATDS matrix" | column: CAMK2B

INSR = assay: Kinobeads competition binding: INSR; design: species or system human; settings: target INSR;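 further: share of total target engagement due to this protein at one drug concentration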
NTRK1 = molecular target: T2, NTRK1 (Homo sapiens, UniProt P04629); assay: Kinobeads competition binding: NTRK1; settings: target NTRK1
T2 construct: endogenous in cells

CLK3 = assay: Kinobeads competition binding: CLK3; design: species or system human; settings: target CLK3
EPHA1 = molecular target: T3, EPHA1 (Homo sapiens, UniProt P21709); assay: Kinobeads competition binding: EPHA1; settings: target EPHA1
T3 construct: endogenous in cells
T3 sequence (P21709 26-976): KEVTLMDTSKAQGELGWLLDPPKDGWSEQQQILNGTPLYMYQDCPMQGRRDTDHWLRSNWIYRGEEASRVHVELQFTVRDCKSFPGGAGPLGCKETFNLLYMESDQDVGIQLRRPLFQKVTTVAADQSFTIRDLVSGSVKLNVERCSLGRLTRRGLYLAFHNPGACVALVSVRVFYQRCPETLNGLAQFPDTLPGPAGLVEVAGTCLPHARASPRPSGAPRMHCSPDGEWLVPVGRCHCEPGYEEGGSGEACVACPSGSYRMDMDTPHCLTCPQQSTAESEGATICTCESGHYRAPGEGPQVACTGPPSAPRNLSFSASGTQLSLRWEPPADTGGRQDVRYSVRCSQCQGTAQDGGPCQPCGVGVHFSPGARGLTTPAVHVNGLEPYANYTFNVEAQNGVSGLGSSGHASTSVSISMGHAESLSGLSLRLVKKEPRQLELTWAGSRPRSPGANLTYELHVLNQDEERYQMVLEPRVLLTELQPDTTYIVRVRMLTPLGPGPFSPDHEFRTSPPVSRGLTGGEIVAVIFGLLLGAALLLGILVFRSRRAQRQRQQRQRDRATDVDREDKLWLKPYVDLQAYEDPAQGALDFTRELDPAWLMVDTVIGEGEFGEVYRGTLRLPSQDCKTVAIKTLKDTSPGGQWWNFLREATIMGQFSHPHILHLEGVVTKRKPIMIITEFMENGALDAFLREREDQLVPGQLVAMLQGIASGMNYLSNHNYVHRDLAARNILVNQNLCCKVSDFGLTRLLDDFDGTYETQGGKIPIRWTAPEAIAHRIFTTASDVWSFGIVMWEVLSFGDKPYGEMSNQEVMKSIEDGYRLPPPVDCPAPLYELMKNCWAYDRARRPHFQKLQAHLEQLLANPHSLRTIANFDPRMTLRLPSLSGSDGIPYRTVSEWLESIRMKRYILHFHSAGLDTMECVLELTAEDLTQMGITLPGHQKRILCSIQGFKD
From the text: Supplement 41589_2023_1459_MOESM4_ESM.xlsx, sheet "CATDS matrix" | column: EPHA1

EPHB4 = molecular target: T4, EPHB4 (Homo sapiens, UniProt P54760); assay: Kinobeads competition binding: EPHB4; settings: target EPHB4
T4 construct: endogenous in cells
T4 sequence (P54760 16-987): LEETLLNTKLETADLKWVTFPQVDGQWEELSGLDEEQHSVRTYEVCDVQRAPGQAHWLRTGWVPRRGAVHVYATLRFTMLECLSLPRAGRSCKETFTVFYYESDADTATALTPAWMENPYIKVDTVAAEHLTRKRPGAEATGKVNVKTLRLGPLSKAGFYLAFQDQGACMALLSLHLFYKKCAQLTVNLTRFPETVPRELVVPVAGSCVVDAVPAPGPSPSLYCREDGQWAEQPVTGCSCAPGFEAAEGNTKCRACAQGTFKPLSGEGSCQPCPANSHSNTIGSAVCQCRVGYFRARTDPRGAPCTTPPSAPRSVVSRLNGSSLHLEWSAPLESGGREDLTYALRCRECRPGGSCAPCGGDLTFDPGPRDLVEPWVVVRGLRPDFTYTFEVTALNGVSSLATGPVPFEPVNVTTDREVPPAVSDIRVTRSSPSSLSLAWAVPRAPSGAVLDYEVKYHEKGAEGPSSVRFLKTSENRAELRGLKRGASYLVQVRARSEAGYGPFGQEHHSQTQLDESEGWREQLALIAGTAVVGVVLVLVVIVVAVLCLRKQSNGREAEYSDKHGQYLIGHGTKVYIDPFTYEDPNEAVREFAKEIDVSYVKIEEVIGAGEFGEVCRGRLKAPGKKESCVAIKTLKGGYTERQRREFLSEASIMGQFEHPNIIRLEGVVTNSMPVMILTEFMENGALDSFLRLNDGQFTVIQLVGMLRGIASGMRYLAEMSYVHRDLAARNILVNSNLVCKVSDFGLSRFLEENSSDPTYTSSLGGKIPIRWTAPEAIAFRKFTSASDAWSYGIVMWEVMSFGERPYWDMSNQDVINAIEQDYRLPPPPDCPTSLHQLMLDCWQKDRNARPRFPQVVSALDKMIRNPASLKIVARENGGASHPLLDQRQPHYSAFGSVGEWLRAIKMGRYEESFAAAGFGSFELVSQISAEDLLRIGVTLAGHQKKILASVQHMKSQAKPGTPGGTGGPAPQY

FECH = assay: Kinobeads competition binding: FECH; design: species or system human; settings: target FECH
MAP3K2 = assay: Kinobeads competition binding: MAP3K2; design: species or system human; settings: target MAP3K2
PI4KA = assay: Kinobeads competition binding: PI4KA; design: species or system human; settings: target PI4KA
DDR2 = assay: Kinobeads competition binding: DDR2; design: species or system human; settings: target DDR2;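 further: target engagement share of this target among all targets at its Kdapp concentration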
AURKA = molecular target: T5, AURKA (Homo sapiens, UniProt O14965); assay: Kinobeads competition binding: AURKA; settings: target AURKA;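 further: selectivity score: engagement of this protein divided by summed engagement of all targets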
T5 construct: endogenous in cells
T5 sequence (O14965 1-403): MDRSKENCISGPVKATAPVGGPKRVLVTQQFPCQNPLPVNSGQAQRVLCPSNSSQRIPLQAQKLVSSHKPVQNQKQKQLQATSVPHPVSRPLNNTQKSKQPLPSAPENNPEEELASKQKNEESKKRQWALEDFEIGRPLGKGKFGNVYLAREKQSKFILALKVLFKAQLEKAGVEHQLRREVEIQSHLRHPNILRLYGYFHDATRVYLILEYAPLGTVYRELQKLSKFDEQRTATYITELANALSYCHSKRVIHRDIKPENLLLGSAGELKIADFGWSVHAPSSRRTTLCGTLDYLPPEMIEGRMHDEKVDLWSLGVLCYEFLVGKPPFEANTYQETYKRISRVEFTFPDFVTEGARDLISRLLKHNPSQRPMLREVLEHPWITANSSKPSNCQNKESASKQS
From the text: Supplement 41589_2023_1459_MOESM4_ESM.xlsx, sheet "CATDS matrix" | column: AURKA

T2 sequence (P04629 33-796): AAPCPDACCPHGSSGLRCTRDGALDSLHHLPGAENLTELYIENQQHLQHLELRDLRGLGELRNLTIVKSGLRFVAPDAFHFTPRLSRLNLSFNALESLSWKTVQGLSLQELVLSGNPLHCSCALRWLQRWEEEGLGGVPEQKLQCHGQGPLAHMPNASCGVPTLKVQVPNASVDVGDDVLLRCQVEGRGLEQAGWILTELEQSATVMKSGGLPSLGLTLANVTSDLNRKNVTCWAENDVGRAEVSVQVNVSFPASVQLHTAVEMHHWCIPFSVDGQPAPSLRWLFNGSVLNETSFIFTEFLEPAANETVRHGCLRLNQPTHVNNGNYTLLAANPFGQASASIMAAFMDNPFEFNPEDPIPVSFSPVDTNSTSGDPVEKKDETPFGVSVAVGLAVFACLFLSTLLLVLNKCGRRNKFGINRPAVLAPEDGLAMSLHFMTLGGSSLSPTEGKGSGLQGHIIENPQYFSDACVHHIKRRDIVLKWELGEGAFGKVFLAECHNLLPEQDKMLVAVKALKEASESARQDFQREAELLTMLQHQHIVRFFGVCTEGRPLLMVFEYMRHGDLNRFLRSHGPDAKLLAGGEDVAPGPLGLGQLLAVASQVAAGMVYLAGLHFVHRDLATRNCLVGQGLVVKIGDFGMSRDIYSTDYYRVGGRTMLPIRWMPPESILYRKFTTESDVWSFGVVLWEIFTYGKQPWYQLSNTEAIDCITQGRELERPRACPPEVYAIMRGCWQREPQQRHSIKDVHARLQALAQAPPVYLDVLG
T1 sequence (Q13554 whole entry): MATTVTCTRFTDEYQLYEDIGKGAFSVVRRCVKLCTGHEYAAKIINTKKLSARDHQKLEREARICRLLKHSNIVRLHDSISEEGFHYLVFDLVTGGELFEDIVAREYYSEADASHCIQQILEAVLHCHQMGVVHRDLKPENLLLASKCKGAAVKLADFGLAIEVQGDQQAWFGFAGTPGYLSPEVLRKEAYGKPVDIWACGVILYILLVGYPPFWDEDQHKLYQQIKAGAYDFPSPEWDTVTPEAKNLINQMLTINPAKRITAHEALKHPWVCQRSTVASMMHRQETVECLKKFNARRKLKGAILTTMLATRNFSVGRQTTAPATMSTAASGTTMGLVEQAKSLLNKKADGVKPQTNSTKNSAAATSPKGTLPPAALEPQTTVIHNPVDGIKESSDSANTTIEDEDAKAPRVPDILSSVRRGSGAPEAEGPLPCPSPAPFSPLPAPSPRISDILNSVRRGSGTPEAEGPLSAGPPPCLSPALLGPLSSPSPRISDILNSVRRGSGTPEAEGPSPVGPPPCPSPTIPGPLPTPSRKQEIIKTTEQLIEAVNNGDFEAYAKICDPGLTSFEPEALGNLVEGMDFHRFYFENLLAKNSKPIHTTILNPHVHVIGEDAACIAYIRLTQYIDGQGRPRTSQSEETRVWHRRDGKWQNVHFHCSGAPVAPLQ

| SMILES | CATDS (CAMK2B) | CATDS (INSR) | CATDS (NTRK1) | CATDS (CLK3) | CATDS (EPHA1) | CATDS (EPHB4) | CATDS (FECH) | CATDS (MAP3K2) | CATDS (PI4KA) | CATDS (DDR2) | CATDS (AURKA) |
| --- | --- | --- | --- | --- | --- | --- | --- | --- | --- | --- | --- |
| Nc1ncnc2[nH]c(-c3ccccc3)nc12 [AH5015_KCGS] | 0 | 0 | 0 | 0 | 0 | 0.03489 | 0 | 0 | 0 | 0 | 0 |
| CCN1CCN(Cc2ccc(Nc3ncc(F)c(-c4cc(F)c5nc(C)n(C(C)C)c5c4)n3)nc2)CC1 [Abemaciclib] | 0.1515 | 0 | 0 | 0 | 0 | 0 | 0 | 0 | 0 | 0 | 0 |
| CN(C)C/C=C/C(=O)Nc1cc2c(Nc3ccc(F)c(Cl)c3)ncnc2cc1O[C@H]1CCOC1 [Afatinib] | 0 |  |  |  | 0 |  | 0 |  | 0 |  | 0 |
| CCc1cc2c(cc1N1CCC(N3CCOCC3)CC1)C(C)(C)c1[nH]c3cc(C#N)ccc3c1C2=O [Alectinib] | 0 | 0 | 0 | 0 | 0 | 0 | 0 | 0 | 0 | 0 | 0 |
| N#CC1(c2ccc(NC(=O)c3cccnc3NCc3ccncc3)cc2)CCCC1 [Apatinib] | 0 | 0 | 0 | 0 | 0 | 0 | 0 | 0 | 0 | 0 | 0 |
